Drawing on PubChem BioAssay (NCI), this text covers TGI for six compounds.

Holding throughout (assay): NCI tumour cell line growth inhibition, 48 h
Test [1] concerns A549 NSCLC.
For test [2], the system named is BT-549 breast.
Test [3] relates to CAKI-1 renal.
For test [4], the system named is DU-145 prostate.
Test [5] relates to EKVX NSCLC.
Test [6] deals with HCC-2998 colon.
The subject of test [7] is HS 578T breast.
Test [8] deals with KM12 colon.
The subject of test [9] is LOX IMVI melanoma.
For test [10], the system named is MALME-3M melanoma.
The subject of test [11] is MDA-MB-231 breast.
The test system of test [12] is MDA-MB-435.
In test [13] the test system is NCI-H23 lung.
Test [14] has as its system NCI-H522 lung.
In test [15] the test system is SF-295 CNS.
Test [16] deals with SF-539 CNS.
Test [17] has as its system SK-MEL-2 melanoma.
Test [18] deals with SN12C renal.
Test [19] concerns UO-31 renal.

The structures appear in SMILES notation.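 48-hour exposure; five concentrations; linearly interpolated endpoints. TGI: total growth inhibition.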 Where only a bound is given, the exact number is not on record here.

For `CO[C@@H](c1ccccc1)[C@H](O)[C@](O)(c1ccccc1)P(=O)(OC)OC`, the TGI in test [1], in test [2], in test [3], in test [4], in test [5] and in test [6] was greater than 100 µM each time. For the same compound, the TGI in [7], in [8], in [9], in [10], in test [11] and in test [12] was greater than 100 µM in each case. Besides, the TGI in test [13], in test [14], in [15], in test [16], in [17] and in test [18] was greater than 100 µM in each case. Besides, in [19], the TGI is greater than 100 µM.

On to `O=C(O)C/C(=C\c1ccccc1)C(=O)O`, for which the TGI in [1], in [2], in test [3], in test [4], in test [5] and in test [6] was greater than 100 µM throughout. The TGI in [7], in test [8], in test [9], in test [10], in test [11] and in [12] was greater than 100 µM in each case. Besides, the TGI in test [13], in test [14], in test [15], in test [16], in [17] and in test [18] was greater than 100 µM throughout. The compound also returned a TGI in test [19] greater than 100 µM.

Consider `CN(C)c1ccc(/C=C/c2cc[n+](C)c3ccccc23)cc1`, for which the TGI in [1] was greater than 90.8 µM; in test [2] it was 8.44 µM; in [3] it was 12.2 µM; in test [4], 52.2 µM; in test [5] it was greater than 100 µM; in test [6], 17 µM. The TGI in test [7] came to 14 µM; in test [8] it was 10.7 µM; in test [9] it was 14.1 µM; in test [10] it was 17.1 µM; in test [11] it was 20.3 µM; in test [12] it was 10.2 µM. The TGI in [13] was 12.5 µM; in test [14], 11.5 µM; in [15] it was greater than 43.2 µM; in test [16], 18.7 µM; in test [17] it was 6.37 µM; in [18], 15 µM. The same compound showed a TGI in [19] greater than 73.3 µM.

Turning to `Cc1ccc(-n2cnc3c(N/N=C4\SCC(=O)N4c4ccccc4)ncnc32)cc1`, the TGI in test [1] is 29.6 µM; in test [2], 14.1 µM; in test [3], 18.9 µM; in test [4] it was 17.5 µM; in test [5], 29 µM; in [7], 26.6 µM. Besides, the TGI in [8] was 7.88 µM; in [9], 10.3 µM; in [10], 16.3 µM; in test [11], 10.5 µM; in test [12], 13.3 µM; in test [13], 14 µM. For the same compound, the TGI in [14] was 7.28 µM; in test [15], 27.6 µM; in test [16], 3.71 µM; in test [17], 8.42 µM; in test [18] it was 11.7 µM; in test [19], 17.9 µM.

On to `COc1ccc(C2NC3=C(CCCC3)C3(C#N)C(=O)N=C(N)C23C#N)cc1` (stereo unspecified), for which the TGI in test [1], in [2], in test [3], in test [4], in [5] and in [6] was greater than 100 µM in each case. The TGI in test [7], in [8], in test [9], in [10], in [11] and in [12] was greater than 100 µM in each case. The TGI in test [13], in [14], in test [15], in [17], in test [18] and in [19] was greater than 100 µM each time.

On to `O=C1C=CC(=O)c2c(O)c(N[C@@H](Cc3ccccc3)C(=O)OCc3ccccc3)c(Cl)c(O)c21`, for which the TGI in test [1], in test [2], in test [3], in test [4], in test [5] and in [6] was greater than 10 µM throughout. The TGI was greater than 10 µM in [7]; greater than 10 µM in test [8]; 7.11 µM in test [9]; greater than 10 µM in test [10]; 8.43 µM in test [11]; greater than 10 µM in test [12]. The TGI in test [13] was greater than 10 µM; in [14] it was greater than 10 µM; in test [15], greater than 10 µM; in [16] it was 8.86 µM; in test [17], greater than 10 µM; in test [18] it was greater than 10 µM.
